According to patent publication US7662810B2, “2-arylmethylazetidine carbapenem derivatives and preparation thereof” (Korea Research Institute of Chemical Technology, priority 2004, dated 2010):

Columns and labels:
[1] = system: Enterobacter cloacae 1321 E; assay: Measurement of Minimum Inhibitory Concentration (MIC); assay type: cell-based
Procedure: (§1) The antibacterial activities of the compounds of the present invention prepared in the above Examples against Gram-positive and Gram-negative bacteria, MRSA and QRS were tested as follows.
(§2) Respective bacterial strains were inoculated into 3 ml of Fleisch extract broth (beef extract 1%, peptone 1%, NaCl 0.3%, Na2HPO4.12H2O 0.2%, pH 7.4-7.5. 10% horse serum was supplemented for Streptococcus pyogenes and S. facium) and cultured on a shaking incubator at 37° C. for 18 hours. About 10^4 CFU/spot of the cultured bacterial strains were inoculated onto Müller-Hinton agar plates containing serial double dilutions (final concentration of 0.002 to 100 μg/ml) of a test compound employing an automatic inoculator (Dynatech, USA), and incubated at 37° C. for 18 hours. When the incubation was completed, the minimum inhibitory concentration was determined. Meropenem (Yuhan corporation, Korea) and vancomycin (Cj Inco., Korea) were used as standard antibiotics, respectively.

[2] = system: Enterobacter cloacae P 99; assay: as above; assay type: cell-based
Procedure: as §1, §2

Escherichia coli 078 = assay: as above; assay type: cell-based
Procedure: as §1, §2

Escherichia coli 1507 E = assay: as above; assay type: cell-based
Procedure: as §1, §2

Escherichia coli DC 0 = assay: as above; assay type: cell-based
Procedure: as §1, §2

Escherichia coli DC 2 = assay: as above; assay type: cell-based
Procedure: as §1, §2

Escherichia coli TEM = assay: as above; assay type: cell-based; details: Escherichia coli TEM
Procedure: as §1, §2

[3] = system: Klebsiella aerogenes 1522 E; assay: as above; assay type: cell-based
Procedure: as §1, §2

[4] = system: Klebsiella oxytoca 1082 E; assay: as above; assay type: cell-based
Procedure: as §1, §2

[5] = system: Salmonella typhimurium 179; assay: as above; assay type: cell-based; details: Salmonella typhimurium 179
Procedure: as §1, §2

[6] = system: Staphylococcus aureus 285; assay: as above; assay type: cell-based
Procedure: as §1, §2

[7] = system: Staphylococcus aureus 503; assay: as above; assay type: cell-based
Procedure: as §1, §2

[8] = system: Staphylococcus faecium MD 8b; assay: as above; assay type: cell-based; details: Staphylococcus faecium MD 8b
Procedure: as §1, §2

[9] = system: Staphylococcus pyogenes 308A; assay: as above; assay type: cell-based; details: Staphylococcus pyogenes 308A
Procedure: as §1, §2

[10] = system: Staphylococcus pyogenes 77A; assay: as above; assay type: cell-based; details: Staphylococcus pyogenes 77A
Procedure: as §1, §2

[11] = system: Staphylococcus aureus 121E; assay: Measurement of Minimum Inhibitory Concentration (MIC), MRSA; assay type: cell-based; details: Staphylococcus aureus 121E
Procedure: as §1, §2

[12] = system: Staphylococcus aureus 208E; assay: as above; assay type: cell-based; details: Staphylococcus aureus 208E
Procedure: as §1, §2

[13] = system: Staphylococcus aureus 256E; assay: as above; assay type: cell-based; details: Staphylococcus aureus 256E
Procedure: as §1, §2

[14] = system: Staphylococcus aureus 690E; assay: as above; assay type: cell-based; details: Staphylococcus aureus 690E
Procedure: as §1, §2

[15] = system: Staphylococcus aureus 692E; assay: as above; assay type: cell-based; details: Staphylococcus aureus 692E
Procedure: as §1, §2

[16] = system: Staphylococcus aureus 693E; assay: as above; assay type: cell-based; details: Staphylococcus aureus 693E
Procedure: as §1, §2

[17] = system: Staphylococcus aureus 694E; assay: as above; assay type: cell-based; details: Staphylococcus aureus 694E
Procedure: as §1, §2

[18] = system: Staphylococcus aureus 695E; assay: as above; assay type: cell-based; details: Staphylococcus aureus 695E
Procedure: as §1, §2

[19] = system: Staphylococcus aureus 697E; assay: as above; assay type: cell-based; details: Staphylococcus aureus 697E
Procedure: as §1, §2

[20] = system: Staphylococcus aureus 88E; assay: as above; assay type: cell-based; details: Staphylococcus aureus 88E
Procedure: as §1, §2

[21] = system: Staphylococcus aureus 179; assay: Measurement of Minimum Inhibitory Concentration (MIC), QRS; assay type: cell-based; details: QRS, Staphylococcus aureus 179
Procedure: as §1, §2

[22] = system: Staphylococcus aureus 241; assay: as above; assay type: cell-based; details: QRS, Staphylococcus aureus 241
Procedure: as §1, §2

[23] = system: Staphylococcus aureus 293; assay: as above; assay type: cell-based; details: QRS, Staphylococcus aureus 293
Procedure: as §1, §2

[24] = system: Staphylococcus epidermidis 178; assay: as above; assay type: cell-based; details: QRS, Staphylococcus epidermidis 178
Procedure: as §1, §2

[25] = system: Staphylococcus epidermidis 291; assay: as above; assay type: cell-based; details: QRS, Staphylococcus epidermidis 291
Procedure: as §1, §2

[26] = Test of Pharmacokinetics in Animals (mice); assay type: in vivo; details: mouse, in vivo, 40 mg/kg
Procedure: The pharmacokinetics of the carbapenem derivatives of the present invention was determined using mice. […] Standard antibiotic samples were prepared by serial two-fold dilution with control blood. […] PK (pharmacokinetic) change indicators (AUC, Tmax, Cmax and T1/2) of the test compound concentration remaining in the mouse blood over time were assayed over a set period.

[27] = molecular target: T1, Dihydropeptidase-1 (DHP-1) (Sus scrofa, UniProt P22412)
T1 sequence (P22412 17-384): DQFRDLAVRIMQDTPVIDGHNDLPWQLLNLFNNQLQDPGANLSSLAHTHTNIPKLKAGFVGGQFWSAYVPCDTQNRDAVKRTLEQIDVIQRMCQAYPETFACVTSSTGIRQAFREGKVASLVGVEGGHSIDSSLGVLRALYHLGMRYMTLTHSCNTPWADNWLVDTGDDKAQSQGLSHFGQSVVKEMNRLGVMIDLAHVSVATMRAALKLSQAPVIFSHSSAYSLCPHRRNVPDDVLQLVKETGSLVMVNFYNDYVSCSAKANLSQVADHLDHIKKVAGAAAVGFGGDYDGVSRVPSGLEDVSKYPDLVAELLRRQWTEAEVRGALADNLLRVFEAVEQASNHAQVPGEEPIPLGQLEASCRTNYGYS
Procedure: (§3) The rate of degradation of the inventive compounds by the action of DHP-1 enzyme extracted from hog kidney was determined as follow.
(§4) 0.2 unit of the enzyme was allowed to react with the above solution at 30° C., and the absorbance at 299 nm of the remaining medicament was measured to determine the degradation rate. The absorbance was measured at 0, 0.5, 1, 2 and 4 hour points, and T1/2, the time when the concentration of the medicament become the half, was obtained by regression analysis.

[28] = molecular target: T1, Dihydropeptidase-1 (DHP-1); assay: Sensitivity Assay Against Dihydropeptidase-1 (DHP-1); details: pig, DHP-1 enzyme extracted from hog kidney
Procedure: as §3, §4

In the case of `C[C@@H](O)[C@H]1C(=O)N2C(C(=O)[O-])=C(SC3CN(Cc4ccccc4)C3)[C@H](C)[C@H]12.[K+]` [Exam. 13, Potassium(1R,5S,6S)-2-(1-benzyl-azetidine-3-yl-thio)-6-[(1R)-1-hydroxylethyl]-1-methylcarbapen-2-em-3-carboxylate], the MIC [1] is reported as 0.049 µg/mL, the MIC [2] is reported as 0.098 µg/mL and the MIC (Escherichia coli 078) is reported as 0.049 µg/mL. For the same molecule, the MIC (Escherichia coli 1507 E) was 0.049 µg/mL, the MIC (Escherichia coli DC 0) was 0.098 µg/mL and the MIC (Escherichia coli DC 2) was 0.025 µg/mL. It also gave an MIC (Escherichia coli TEM) of 0.049 µg/mL, an MIC [3] of 0.098 µg/mL and an MIC [4] of 0.049 µg/mL. For the same molecule, the MIC [5] was 0.049 µg/mL, the MIC [6] was 0.025 µg/mL and the MIC [7] was 0.013 µg/mL. For the same molecule, the MIC [8] was 1.563 µg/mL, the MIC [9] was 0.002 µg/mL and the MIC [10] was 0.002 µg/mL. For the same molecule, the MIC [11] was 0.025 µg/mL, the MIC [12] was 0.049 µg/mL and the MIC [13] was 0.013 µg/mL. The MIC [14] was 0.391 µg/mL, the MIC [15] was 0.025 µg/mL and the MIC [16] was 3.125 µg/mL. The MIC [17] was 1.563 µg/mL, the MIC [18] was 0.391 µg/mL and the MIC [19] was 0.025 µg/mL. The MIC [20] was 0.025 µg/mL, the MIC [21] was 0.049 µg/mL and the MIC [22] was 0.049 µg/mL. The MIC [23] was 0.098 µg/mL, the MIC [24] was 0.391 µg/mL and the MIC [25] was 0.391 µg/mL. The “AUC, times higher than meropenem” value [26] was 10 to 12 times, the “increase in T1/2 than meropenem” value [26] was “more than 2 times” and the “AUC (area under blood-medicament concentration curve till 24 hours from administration)” value ([26]; po) was 1730 ng·h/mL. The Cmax ([26]; po) was 1060 ng/mL, the “T1/2 (half time of blood-medicament concentration)” value ([26]; po) was 48.6 min and the Tmax ([26]; po) was 29.4 min. The “absorption through the oral route” value ([26]; po) was “absorbed through the oral route to significant extents”, the “AUC (area under blood-medicament concentration curve till 24 hours from administration)” value ([26]; sc) was 94760 ng·h/mL and the Cmax ([26]; sc) was 86830 ng/mL. The “T1/2 (half time of blood-medicament concentration)” value ([26]; sc) was 55.2 min, the Tmax ([26]; sc) was 13.2 min and the “T1/2 (time when the concentration of the medicament become the half)” value [27] was 19.28.
`C[C@@H](O)[C@H]1C(=O)N2C(C(=O)[O-])=C(SC3CN(Cc4ccc(F)cc4)C3)[C@H](C)[C@H]12.[K+]` [Exam. 19, Potassium(1R,5S,6S)-2-[1-(4-fluorobenzyl)-azetidine-3-yl-thio]-6-[(1R)-1-hydroxylethyl]-1-methylcarbapen-2-em-3-carboxylate] gave an MIC [1] of 0.049 µg/mL, an MIC [2] of 0.098 µg/mL and an MIC (Escherichia coli 078) of 0.025 µg/mL. It also gave an MIC (Escherichia coli 1507 E) of 0.049 µg/mL, an MIC (Escherichia coli DC 0) of 0.098 µg/mL and an MIC (Escherichia coli DC 2) of 0.025 µg/mL. For the same molecule, the MIC (Escherichia coli TEM) was 0.049 µg/mL, the MIC [3] was 0.098 µg/mL and the MIC [4] was 0.049 µg/mL. It also gave an MIC [5] of 0.049 µg/mL, an MIC [6] of 0.025 µg/mL and an MIC [7] of 0.013 µg/mL. It also gave an MIC [8] of 1.563 µg/mL, an MIC [9] of 0.002 µg/mL and an MIC [10] of 0.002 µg/mL. For the same molecule, the MIC [11] was 0.049 µg/mL, the MIC [12] was 0.025 µg/mL and the MIC [13] was 0.025 µg/mL. It also gave an MIC [14] of 0.391 µg/mL, an MIC [15] of 0.025 µg/mL and an MIC [16] of 3.125 µg/mL. It also gave an MIC [17] of 3.125 µg/mL, an MIC [18] of 0.195 µg/mL and an MIC [19] of 0.049 µg/mL. It also gave an MIC [20] of 0.049 µg/mL, an MIC [21] of 0.049 µg/mL and an MIC [22] of 0.049 µg/mL. The MIC [23] was 0.195 µg/mL, the MIC [24] was 0.195 µg/mL and the MIC [25] was 0.391 µg/mL. For the same molecule, the “T1/2 (time when the concentration of the medicament become the half)” value [27] was 28.16.
With `C[C@@H](O)[C@H]1C(=O)N2C(C(=O)[O-])=C(SC3CN([C@@H](C)c4ccccc4)C3)[C@H](C)[C@H]12.[K+]` [Exam. 22, Potassium(1R,5S,6S)-2-{1-[(1S)-1-phenylethyl]-azetidine-3-yl-thio}-6-[(R)-1-hydroxylethyl]-1-methylcarbapen-2-em-3-carboxylate] the MIC [1] was 0.098 µg/mL, the MIC [2] was 0.391 µg/mL and the MIC (Escherichia coli 078) was 0.098 µg/mL. The MIC (Escherichia coli 1507 E) was 0.195 µg/mL, the MIC (Escherichia coli DC 0) was 0.391 µg/mL and the MIC (Escherichia coli DC 2) was 0.025 µg/mL. The MIC (Escherichia coli TEM) was 0.391 µg/mL, the MIC [3] was 0.391 µg/mL and the MIC [4] was 0.098 µg/mL. It also gave an MIC [5] of 0.049 µg/mL, an MIC [6] of 0.025 µg/mL and an MIC [7] of 0.013 µg/mL. The MIC [8] was 1.563 µg/mL, the MIC [9] was 0.002 µg/mL and the MIC [10] was 0.002 µg/mL. It also gave an MIC [11] of 0.049 µg/mL, an MIC [12] of 0.025 µg/mL and an MIC [13] of 0.025 µg/mL. It also gave an MIC [14] of 0.195 µg/mL, an MIC [15] of 0.025 µg/mL and an MIC [16] of 3.125 µg/mL. For the same molecule, the MIC [17] was 0.049 µg/mL, the MIC [18] was 0.098 µg/mL and the MIC [19] was 0.025 µg/mL. The MIC [20] was 0.025 µg/mL, the MIC [21] was 0.049 µg/mL and the MIC [22] was 0.049 µg/mL. The MIC [23] was 0.195 µg/mL, the MIC [24] was 0.195 µg/mL and the MIC [25] was 0.391 µg/mL. For the same molecule, the “T1/2 (time when the concentration of the medicament become the half)” value [27] was 65.99 and the “stability against hydrolysis by DHP-1 (in words)” value [27] was “very stable”.
`C[C@@H](O)[C@H]1C(=O)N2C(C(=O)O)=C(SCCN=CN)C[C@H]12` [Imipenem, imipenem] showed a half-life at 500 μg/ml [28] of 143 min.
